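Exposure lasted 48 hours, with cells grown in 96-well plates and compounds tested at five concentrations. The concentration for full growth arrest is given as TGI.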

Some test systems named below: HOP-62 NSCLC; OVCAR-5 ovarian; 786-0 renal; UACC-257 melanoma; HCC-2998 colon; UACC-62 melanoma; SNB-75 CNS; A549 NSCLC; MOLT-4 leukemia; CCRF-CEM leukemia; SN12C renal; NCI-H23 lung; COLO 205 colon.
Common to all, as to test: NCI tumour cell line growth inhibition, 48 h

For the molecule `O=C(CCN(CCO)CCO)Nc1ccc2c(c1)C(=O)c1ccc(NC(=O)CCN(CCO)CCO)cc1C2=O`, the TGI in the assay with HOP-62 NSCLC is 98.3 µM; in the assay on OVCAR-5 ovarian, over 100 µM; in the assay on 786-0 renal, 32 µM; in the assay on UACC-257 melanoma it was over 100 µM; in the assay on HCC-2998 colon, 8.52 µM; in the assay on UACC-62 melanoma it was 27.8 µM. Moreover, the TGI with SNB-75 CNS was over 100 µM; with A549 NSCLC, over 100 µM; in the assay on MOLT-4 leukemia, 44.9 µM; with CCRF-CEM leukemia, 39.5 µM; with SN12C renal, over 100 µM; in the assay on NCI-H23 lung it was over 100 µM. For the same molecule, the TGI with COLO 205 colon worked out at 29.5 µM.

Consider `CCOc1ccc(NCC(=O)N2CC(=O)Nc3ccccc32)cc1`, for which the TGI in the assay with HOP-62 NSCLC, in the assay with OVCAR-5 ovarian, in the assay on 786-0 renal, in the assay with UACC-257 melanoma, in the assay on HCC-2998 colon and in the assay with UACC-62 melanoma was over 100 µM in each case. The TGI in the assay with SNB-75 CNS, in the assay with A549 NSCLC, in the assay with MOLT-4 leukemia, in the assay on CCRF-CEM leukemia, in the assay on SN12C renal and with NCI-H23 lung was over 100 µM in each case. The TGI in the assay on COLO 205 colon is over 100 µM.

On to `CCCCCCCCCCCCCCCC(=O)NC1CCc2cc(O)c(O)c(O)c2-c2ccc(SC)c(=O)cc21` (centres undefined), for which the TGI in the assay on HOP-62 NSCLC came to 25.4 µM; in the assay with OVCAR-5 ovarian, 26.8 µM; with 786-0 renal, 33.3 µM; with UACC-257 melanoma, 26.7 µM; in the assay with HCC-2998 colon, 20.9 µM; with UACC-62 melanoma, 10.9 µM. Also, the TGI is 9.13 µM in the assay on SNB-75 CNS; 15.5 µM with A549 NSCLC; over 71.8 µM in the assay on MOLT-4 leukemia; 46.2 µM in the assay on CCRF-CEM leukemia; 35.8 µM in the assay with SN12C renal; 16.6 µM in the assay on NCI-H23 lung. This molecule had a TGI in the assay on COLO 205 colon of 16.9 µM.

For `CC(=O)Nc1ccc(-c2nnc(SCC(=O)Nc3ccccc3Cl)o2)cc1`, the TGI in the assay with HOP-62 NSCLC, in the assay with OVCAR-5 ovarian, with 786-0 renal, with UACC-257 melanoma, in the assay on HCC-2998 colon and in the assay with SNB-75 CNS was over 100 µM throughout. In addition, the TGI in the assay on A549 NSCLC, in the assay with MOLT-4 leukemia, in the assay with CCRF-CEM leukemia, in the assay with SN12C renal, in the assay with NCI-H23 lung and with COLO 205 colon was over 100 µM throughout.

For the molecule `CC(SC1=CC(=O)c2c(Cl)ccc(O)c2C1=O)C(=O)O` (centres undefined), the TGI with UACC-257 melanoma was 30.3 µM; with HCC-2998 colon, 41.1 µM; in the assay with SNB-75 CNS, 31 µM; with A549 NSCLC, 48.1 µM; with MOLT-4 leukemia it was 57.7 µM; in the assay with CCRF-CEM leukemia it was over 100 µM. Also, the TGI in the assay with SN12C renal was 30.9 µM; in the assay with COLO 205 colon it was 45.1 µM.

Consider `CCc1cc(Cc2cc(CC)c(NC(=O)C3=CC(=O)CC(c4ccc(OC)cc4)O3)c(CC)c2Cl)c(Cl)c(CC)c1NC(=O)C1=CC(=O)CC(c2ccc(OC)cc2)O1` (centres undefined), for which the TGI came out at 46.5 µM in the assay with HOP-62 NSCLC; 37.3 µM in the assay with OVCAR-5 ovarian; 34.3 µM in the assay with 786-0 renal; 36.8 µM with UACC-257 melanoma; 30.4 µM in the assay with HCC-2998 colon; 63.2 µM in the assay with UACC-62 melanoma. The TGI in the assay on SNB-75 CNS was 46.2 µM; with A549 NSCLC, 43.8 µM; in the assay on MOLT-4 leukemia it was over 100 µM; with CCRF-CEM leukemia, 90.2 µM; with SN12C renal, 39.5 µM; with NCI-H23 lung, 32 µM. The molecule further came in with a TGI with COLO 205 colon of 31.6 µM.

As to `COc1ccc2c(OC)c3ccoc3nc2c1O`, the TGI in the assay with HOP-62 NSCLC, in the assay with OVCAR-5 ovarian, with 786-0 renal, with UACC-257 melanoma, in the assay with HCC-2998 colon and with UACC-62 melanoma was over 100 µM each time. Moreover, the TGI in the assay on SNB-75 CNS, with A549 NSCLC, in the assay with MOLT-4 leukemia, with CCRF-CEM leukemia, in the assay on SN12C renal and in the assay on NCI-H23 lung was over 100 µM throughout. In the assay with COLO 205 colon, the TGI was over 100 µM.

For the molecule `c1ccc(C2=NN(c3ccccc3)C3(S2)SC(c2ccccc2)(c2ccccc2)c2ccccc23)cc1` (centres undefined), the TGI in the assay on HOP-62 NSCLC, in the assay with OVCAR-5 ovarian, in the assay on 786-0 renal, in the assay on UACC-257 melanoma, in the assay on HCC-2998 colon and with UACC-62 melanoma was over 100 µM throughout. The TGI with SNB-75 CNS, in the assay on A549 NSCLC, in the assay on MOLT-4 leukemia, with CCRF-CEM leukemia, with SN12C renal and in the assay on NCI-H23 lung was over 100 µM each time. The TGI with COLO 205 colon was over 100 µM.

Regarding `CC(=O)OC1[C@H]2c3cc4c(cc3CN3CCC(C[C@@H]1OC(C)=O)C23)OCO4` (some centres undefined), the TGI in the assay with HOP-62 NSCLC, in the assay with 786-0 renal, in the assay with UACC-257 melanoma, with HCC-2998 colon, in the assay with UACC-62 melanoma and in the assay on SNB-75 CNS was over 75 µM each time. Further, the TGI in the assay with A549 NSCLC, in the assay with MOLT-4 leukemia, with CCRF-CEM leukemia, with SN12C renal, with NCI-H23 lung and with COLO 205 colon was over 75 µM in each case.

Consider `COc1ccc2c(c1)c(Cc1c(C)n(C)c3ccc(OC)cc13)c(C)n2C`, for which the TGI with HOP-62 NSCLC, with OVCAR-5 ovarian, with 786-0 renal, in the assay with UACC-257 melanoma, in the assay with UACC-62 melanoma and with SNB-75 CNS was over 100 µM in each case. For the same molecule, the TGI in the assay with A549 NSCLC, with MOLT-4 leukemia, in the assay with CCRF-CEM leukemia, with SN12C renal, with NCI-H23 lung and in the assay on COLO 205 colon was over 100 µM each time.

With `O=S(=O)(CC1=NC2C=CC=CC2N=C1)NCc1ccccc1` (centres undefined), the TGI in the assay on HOP-62 NSCLC, in the assay on OVCAR-5 ovarian, in the assay with 786-0 renal, in the assay with HCC-2998 colon, in the assay with UACC-62 melanoma and in the assay with SNB-75 CNS was over 100 µM throughout. The TGI in the assay with A549 NSCLC, in the assay on MOLT-4 leukemia, in the assay on CCRF-CEM leukemia, in the assay with SN12C renal, with NCI-H23 lung and in the assay on COLO 205 colon was over 100 µM throughout.

(Values after PubChem BioAssay (NCI).)
